In patent US11000033B2, “Ketone or oxime compound, and herbicide” (NISSAN CHEMICAL CORPORATION, priority 2014, dated 2021):

Assays:
Format in all cases: in vivo
[1] = tested on: Echinochloa crus-galli var. crus-galli; experiment: Test Example 4: herbicidal effect by soil treatment (symbol H); settings: application herbicide amount 320 g/ha
In short: (§1)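 Seeds were sown in sterilized diluvial soil, covered with about 1.5 cm of soil, and the soil surface was sprayed with a water-diluted emulsion of the compound at a predetermined rate. Plants grew in a greenhouse at 25° C. to 30° C.; effects were scored visually 3 weeks after application.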

[2] = tested on: wheat; experiment: Test Example 5: effect on crop by foliage application, plastic box (symbol e); settings: 320 g/ha, 3 weeks after application
In short: (§2)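 Plants were raised from seed in a greenhouse (25° C. to 30° C.) after sowing in a plastic box of sterilized diluvial soil.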

[3] = tested on: Setaria viridis; experiment: Test Example 5: herbicidal effect by foliage application, plastic box (symbol G); settings: 320 g/ha, 3 weeks after application
In short: (§3)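 Post-emergence spray; diluvial soil (sterilized), ~1.5 cm seed cover; greenhouse 25–30° C; 14-day-old plants; water-diluted emulsion at predetermined dose; visual score at 3 wk post-treatment.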

[4] = tested on: Scirpus juncoides; experiment: Test Example 1: herbicidal activity, application before weed generation in submerged conditions (symbol B); settings: application herbicide amount 320 g/ha
In short: (§4)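 Mixed weed seeds sown in alluvial soil under 4 cm of water, with rice seedlings at the 2.5-leaf stage added. Same-day treatment: emulsion diluted to a set herbicide amount onto the water. Three weeks at 25–30 °C, then graded on a six-step scale.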

[5] = tested on: Stellaria media; experiment: Test Example 5: herbicidal effect by foliage application, plastic box (symbol P); settings: 320 g/ha, 3 weeks after application
In short: as §3

[6] = tested on: Echinochloa crus-galli var. crus-galli; experiment: Test Example 5: herbicidal effect by foliage application, plastic box (symbol H); settings: 320 g/ha, 3 weeks after application
In short: as §3

[7] = tested on: Monochoria vaginalis; experiment: Test Example 1: herbicidal activity, application before weed generation in submerged conditions (symbol C); settings: application herbicide amount 320 g/ha
In short: as §4

[8] = tested on: corn; experiment: Test Example 4: effect on crop by soil treatment (symbol c); settings: application herbicide amount 320 g/ha
In short: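 Sterilized diluvial soil, spot sowing, ~1.5 cm soil cover; greenhouse 25–30° C.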

[9] = tested on: Amaranthus retroflexus; experiment: Test Example 4: herbicidal effect by soil treatment (symbol N); settings: application herbicide amount 320 g/ha
In short: as §1

[10] = tested on: Setaria viridis; experiment: Test Example 4: herbicidal effect by soil treatment (symbol G); settings: application herbicide amount 320 g/ha
In short: as §1

[11] = tested on: Apera spica-venti; experiment: Test Example 4: herbicidal effect by soil treatment (symbol L); settings: application herbicide amount 320 g/ha
In short: as §1

[12] = tested on: Alopecurus myosuroides; experiment: Test Example 5: herbicidal effect by foliage application, plastic box (symbol J); settings: 320 g/ha, 3 weeks after application
In short: as §3

[13] = tested on: rapeseed; experiment: Test Example 5: effect on crop by foliage application, plastic box (symbol g); settings: 320 g/ha, 3 weeks after application
In short: as §2

[14] = tested on: Leptochloa chinensis; experiment: Test Example 3: herbicidal effect by foliage application, Wagner pot (symbol D); settings: application herbicide amount 320 g/ha
In short: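 The compound, formulated as an emulsion and diluted with water to a predetermined rate, is applied uniformly to leaves of two-week-old seedlings growing in submerged alluvial soil at 25–30 °C. Rice is included. Each plant is assessed 3 weeks later using defined criteria.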

[15] = tested on: rapeseed; experiment: Test Example 4: effect on crop by soil treatment (symbol g); settings: application herbicide amount 320 g/ha
In short: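 Crop seed is sown in spots together with several weed species in a box of sterilized diluvial soil. It is covered by about 1.5 cm of soil and kept in a greenhouse held between 25° C. and 30° C.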

[16] = tested on: Galium spurium; experiment: Test Example 5: herbicidal effect by foliage application, plastic box (symbol Q); settings: 320 g/ha, 3 weeks after application
In short: as §3

[17] = tested on: Lolium multiflorum Lam.; experiment: Test Example 4: herbicidal effect by soil treatment (symbol K); settings: application herbicide amount 320 g/ha
In short: as §1

## CC(CC1CC(O)=C(c2c(C)cc(C)cc2C)C1=O)=NOCC(F)(F)F (stereo not shown) [1-028]
[1]
  H (Echinochloa crus-galli var. crus-galli) herbicidal effect grade: 5 (Herbicidal ratio of 90% or more (almost completely withered))
[2]
  e: wheat, effect on crop grade: 3 (Herbicidal ratio of 40% or higher and lower than 70%)
[3]
  G: Setaria viridis, herbicidal effect grade: 5 (Herbicidal ratio of 90% or more (almost completely withered))
[4]
  Herbicidal effect grade, B: Scirpus juncoides: 5 (Herbicidal ratio of 90% or more (almost completely withered))
[5]
  P: Stellaria media, herbicidal effect grade: 3 (Herbicidal ratio of 40% or higher and lower than 70%)
[6]
  H: Echinochloa crus-galli var. crus-galli, herbicidal effect grade: 5 (Herbicidal ratio of 90% or more (almost completely withered))
[7]
  Herbicidal effect grade, C: Monochoria vaginalis: 1 (Herbicidal ratio of 5% or higher and lower than 20%)
[8]
  c (corn) effect on crop grade: 0 (Herbicidal ratio of 5% or lower (almost no effect))
[9]
  N (Amaranthus retroflexus) herbicidal effect grade: 3 (Herbicidal ratio of 40% or higher and lower than 70%)
[10]
  G (Setaria viridis) herbicidal effect grade: 5 (Herbicidal ratio of 90% or more (almost completely withered))
[11]
  L (Apera spica-venti) herbicidal effect grade: 5 (Herbicidal ratio of 90% or more (almost completely withered))
[12]
  J: Alopecurus myosuroides, herbicidal effect grade: 5 (Herbicidal ratio of 90% or more (almost completely withered))
[13]
  g: rapeseed, effect on crop grade: 4 (Herbicidal ratio of 70% or higher and lower than 90%)
[14]
  herbicidal effect on D (Leptochloa chinensis), grade 0-5: 5 (Herbicidal ratio of 90% or more (almost completely withered))
[15]
  g (rapeseed) effect on crop grade: 4 (Herbicidal ratio of 70% or higher and lower than 90%)
[16]
  Q: Galium spurium, herbicidal effect grade: 3 (Herbicidal ratio of 40% or higher and lower than 70%)
[17]
  K (Lolium multiflorum Lam.) herbicidal effect grade: 5 (Herbicidal ratio of 90% or more (almost completely withered))

## CON=CC(C)(C)C1CC(O)=C(c2c(C)cc(C)cc2C)C1=O (stereo not shown) [1-030]
[1]
  H (Echinochloa crus-galli var. crus-galli) herbicidal effect grade: 2 (Herbicidal ratio of 20% or higher and lower than 40%)
[2]
  e: wheat, effect on crop grade: 0 (Herbicidal ratio of 5% or lower (almost no effect))
[3]
  G: Setaria viridis, herbicidal effect grade: 5 (Herbicidal ratio of 90% or more (almost completely withered))
[4]
  Herbicidal effect grade, B: Scirpus juncoides: 0 (Herbicidal ratio of 5% or lower (almost no effect))
[5]
  P: Stellaria media, herbicidal effect grade: 0 (Herbicidal ratio of 5% or lower (almost no effect))
[6]
  H: Echinochloa crus-galli var. crus-galli, herbicidal effect grade: 4 (Herbicidal ratio of 70% or higher and lower than 90%)
[7]
  Herbicidal effect grade, C: Monochoria vaginalis: 0 (Herbicidal ratio of 5% or lower (almost no effect))
[8]
  c (corn) effect on crop grade: 0 (Herbicidal ratio of 5% or lower (almost no effect))
[9]
  N (Amaranthus retroflexus) herbicidal effect grade: 0 (Herbicidal ratio of 5% or lower (almost no effect))
[10]
  G (Setaria viridis) herbicidal effect grade: 2 (Herbicidal ratio of 20% or higher and lower than 40%)
[11]
  L (Apera spica-venti) herbicidal effect grade: 3 (Herbicidal ratio of 40% or higher and lower than 70%)
[12]
  J: Alopecurus myosuroides, herbicidal effect grade: 4 (Herbicidal ratio of 70% or higher and lower than 90%)
[13]
  g: rapeseed, effect on crop grade: 3 (Herbicidal ratio of 40% or higher and lower than 70%)
[14]
  herbicidal effect on D (Leptochloa chinensis), grade 0-5: 5 (Herbicidal ratio of 90% or more (almost completely withered))
[15]
  g (rapeseed) effect on crop grade: 0 (Herbicidal ratio of 5% or lower (almost no effect))
[16]
  Q: Galium spurium, herbicidal effect grade: 0 (Herbicidal ratio of 5% or lower (almost no effect))
[17]
  K (Lolium multiflorum Lam.) herbicidal effect grade: 5 (Herbicidal ratio of 90% or more (almost completely withered))

## CON=C(C)C(C)C1CC(O)=C(c2c(C)cc(C)cc2C)C1=O (stereo not shown) [1-032]
[1]
  H (Echinochloa crus-galli var. crus-galli) herbicidal effect grade: 5 (Herbicidal ratio of 90% or more (almost completely withered))
[2]
  e: wheat, effect on crop grade: 5 (Herbicidal ratio of 90% or more (almost completely withered))
[3]
  G: Setaria viridis, herbicidal effect grade: 5 (Herbicidal ratio of 90% or more (almost completely withered))
[4]
  Herbicidal effect grade, B: Scirpus juncoides: 5 (Herbicidal ratio of 90% or more (almost completely withered))
[5]
  P: Stellaria media, herbicidal effect grade: 4 (Herbicidal ratio of 70% or higher and lower than 90%)
[6]
  H: Echinochloa crus-galli var. crus-galli, herbicidal effect grade: 5 (Herbicidal ratio of 90% or more (almost completely withered))
[7]
  Herbicidal effect grade, C: Monochoria vaginalis: 3 (Herbicidal ratio of 40% or higher and lower than 70%)
[8]
  c (corn) effect on crop grade: 4 (Herbicidal ratio of 70% or higher and lower than 90%)
[9]
  N (Amaranthus retroflexus) herbicidal effect grade: 4 (Herbicidal ratio of 70% or higher and lower than 90%)
[10]
  G (Setaria viridis) herbicidal effect grade: 5 (Herbicidal ratio of 90% or more (almost completely withered))
[11]
  L (Apera spica-venti) herbicidal effect grade: 5 (Herbicidal ratio of 90% or more (almost completely withered))
[12]
  J: Alopecurus myosuroides, herbicidal effect grade: 5 (Herbicidal ratio of 90% or more (almost completely withered))
[13]
  g: rapeseed, effect on crop grade: 4 (Herbicidal ratio of 70% or higher and lower than 90%)
[14]
  herbicidal effect on D (Leptochloa chinensis), grade 0-5: 5 (Herbicidal ratio of 90% or more (almost completely withered))
[15]
  g (rapeseed) effect on crop grade: 5 (Herbicidal ratio of 90% or more (almost completely withered))
[16]
  Q: Galium spurium, herbicidal effect grade: 4 (Herbicidal ratio of 70% or higher and lower than 90%)
[17]
  K (Lolium multiflorum Lam.) herbicidal effect grade: 5 (Herbicidal ratio of 90% or more (almost completely withered))

## CON=C(C)CC1CC(OC(=O)C2(C)CC2(Cl)Cl)=C(c2c(C)cc(C)cc2C)C1=O (stereo not shown) [1-036]
[1]
  H (Echinochloa crus-galli var. crus-galli) herbicidal effect grade: 5 (Herbicidal ratio of 90% or more (almost completely withered))
[2]
  e: wheat, effect on crop grade: 5 (Herbicidal ratio of 90% or more (almost completely withered))
[3]
  G: Setaria viridis, herbicidal effect grade: 5 (Herbicidal ratio of 90% or more (almost completely withered))
[4]
  Herbicidal effect grade, B: Scirpus juncoides: 4 (Herbicidal ratio of 70% or higher and lower than 90%)
[6]
  H: Echinochloa crus-galli var. crus-galli, herbicidal effect grade: 5 (Herbicidal ratio of 90% or more (almost completely withered))
[7]
  Herbicidal effect grade, C: Monochoria vaginalis: 1 (Herbicidal ratio of 5% or higher and lower than 20%)
[8]
  c (corn) effect on crop grade: 3 (Herbicidal ratio of 40% or higher and lower than 70%)
[9]
  N (Amaranthus retroflexus) herbicidal effect grade: 5 (Herbicidal ratio of 90% or more (almost completely withered))
[10]
  G (Setaria viridis) herbicidal effect grade: 5 (Herbicidal ratio of 90% or more (almost completely withered))
[11]
  L (Apera spica-venti) herbicidal effect grade: 5 (Herbicidal ratio of 90% or more (almost completely withered))
[12]
  J: Alopecurus myosuroides, herbicidal effect grade: 5 (Herbicidal ratio of 90% or more (almost completely withered))
[13]
  g: rapeseed, effect on crop grade: 4 (Herbicidal ratio of 70% or higher and lower than 90%)
[14]
  herbicidal effect on D (Leptochloa chinensis), grade 0-5: 5 (Herbicidal ratio of 90% or more (almost completely withered))
[15]
  g (rapeseed) effect on crop grade: 5 (Herbicidal ratio of 90% or more (almost completely withered))
[16]
  Q: Galium spurium, herbicidal effect grade: 0 (Herbicidal ratio of 5% or lower (almost no effect))
[17]
  K (Lolium multiflorum Lam.) herbicidal effect grade: 5 (Herbicidal ratio of 90% or more (almost completely withered))
